The source of these data is US8140141B2, “Devices and methods for fluorescent inspection and/or removal of material in a sample” (University of Utah Research Foundation, priority 2006, dated 2012).

The conditions of series [1]: conventional blue dyes for sentinel lymph node procedures, after injection into tissue; cited from earlier work.
The test system of series [2] is P-388 murine leukemia cells.
The test system of series [3] is HCT-116 human colon tumor cells.

As to `CCN(CC)c1ccc(C(=C2C=CC(=[N+](CC)CC)C=C2)c2cc(S(=O)(=O)[O-])ccc2S(=O)(=O)[O-])cc1.[Na+]` [Lymphazurine], the “Passage out of lymphatic ducts into surrounding tissue” value in series [1] was “tend to flow out of the lymphatic ducts into the surrounding tissue very quickly”.

Regarding doxorubicin-cobalamin conjugate, the Cellular uptake result in series [2] and in series [3] was “can be observed” throughout.

Consider `CN(C)c1ccc2nc3ccc(=[N+](C)C)cc-3sc2c1` [methylene blue], for which the “Passage out of lymphatic ducts into surrounding tissue” value in series [1] is recorded as “tend to flow out of the lymphatic ducts into the surrounding tissue very quickly”.
